Measured values taken from patent US9131689B2, “Use of a 1-N-(halo-3-pyridylmethyl)-N-methylamino-1-alkylamino-2-nitroethylene derivative for preparing a topical veterinary pharmaceutical composition for combating external parasites” (priority 2007, dated 2015).
Where two headings read alike, the source gives them in different places.

Tests used:
Assay type in all cases: in vivo
Ctenocephalides felis [1] = assay: Rapidity of action of topical compositions against flea infestation in cats (Example 1)
Protocol: In this example, a comparative study of the efficacy of nitenpyram (rapidity of action) administered topically, alone or in combination with fipronil, compared with fipronil administered alone, against cat fleas, was carried out.
It is a randomized, blind, controlled efficacy study carried out in parallel on 4 groups of six cats, according to the recommendations of the guidelines of the Committee for Veterinary Medicinal Products (CVMP): “Guidelines for the testing and evaluation of the efficacy of antiparasitic substances for the treatment and prevention of tick and flea infestations in dogs and cats”, EMEA/CVMP/005/00-FINAL-Rev.1.
The cats used in this study were male or female, adult domestic cats more than 6 months old, of mixed breeds, but mainly of short-hair European breed, weighing between 2 and 5 kg. […]
6 days before the beginning of the study (D=−6), all the cats were infested with approximately 100 laboratory fleas, strain Ctenocephalides felis, of male or female gender. The fleas were then counted on the day before the treatment (D=−1) and then at different times after application of the treatment (1, 4, 12 and 24 hours after treatment).
To do this, all the fleas present on an animal are harvested by combing the cat and then counting after combing. The number of live fleas is thus determined. […]

Ctenocephalides felis [2] = assay: Supplementary study of efficacy over time after weekly flea re-infestation of cats (Example 3)
Protocol: In this example, a comparative study of the efficacy, over time, of nitenpyram administered topically, alone or in combination with fipronil, compared with fipronil administered alone, against cat fleas, was carried out. It is the continuation of the study of example 1 using compositions A, B and C.
At a regular interval after the first administration (D=0), all the cats were infested with approximately 100 laboratory fleas, strain Ctenocephalides felis, of male or female gender. The re-infestations were thus carried out at D=7, D=14, D=21, D=28, D=35, D=42, D=49, D=56 and D=63. The fleas were then counted various times after application of the treatment (at 2, 4 and 12 hours after re-infestation at D=7, D=14, D=21 and D=28; at 4, 8 and 12 hours after re-infestation at D=35 and D=42; at 12, 24 and 48 hours after re-infestation at D=49; at 24 and 48 hours after re-infestation at D=56 and, finally, at 48 hours after re-infestation at D=63).
To do this, all the fleas present on an animal were harvested by combing the cat, and then counted after combing. The number of live fleas is thus determined. After each count, the live fleas are put back on the cat. […]

[3] = Comparative pharmacokinetics of nitenpyram administered orally and topically to cats (Example 4); conditions: for Tmax: read-out: Tmax: time at which the maximum concentration of nitenpyram in the plasma is observed; for AUC: read-out: AUCtot: area under the curve of the nitenpyram concentration over time determined between t0 and the final measurement; for half-life: read-out: Thalf: half-life time (converted); for Cmax: read-out: Cmax: maximum amount of nitenpyram in the plasma
Protocol: In this example, a comparative study of the pharmacokinetics of nitenpyram administered topically and orally to cats was carried out.
The cats used in this study were prepared under the same conditions as those described in example 1.
It was verified, beforehand, that no trace of nitenpyram was detected in the plasma of the cats.
Ten young adult cats weighing between 2 and 6 kg are divided up into two groups: • a first group of 5 cats (female) received a single topical administration on the back between the shoulder blades at the beginning of the study; the topical composition is a solution containing 10% of nitenpyram (100 mg of nitenpyram per ml) and the amount administered is 0.5 ml per cat. • a second group (4 females and one male) received a single oral administration of the commercial product Capstar® given at the beginning of the study. The Capstar® product is a tablet comprising 11.4 mg of nitenpyram.
Blood samples were taken regularly, and centrifuged at 3000 rpm for 10 minutes at 4° C., the pellet is removed and the plasma is recovered for analysis.
The plasma concentration of nitenpyram is determined by the UPLC-MS/MS (Ultra-Performance Liquid Chromatography coupled to tandem mass spectrometry) method on an Acquity BEH C18 column and a Waters Quattro Premier XE mass […].

[4] = both sexes, in vivo, oral administration, Capstar tablet 11.4 mg nitenpyram
[5] = female, plasma, topical or ocular, 50 mg per cat, topical administration, 10% solution 0.5 ml per cat

## CCN(Cc1ccc(Cl)nc1)/C(=C/[N+](=O)[O-])NC [nitenpyram, (E)-N-(6-chloro-3-pyridylmethyl)-N-ethyl-N′-methyl-2-nitrovinylidenediamine]
Ctenocephalides felis [1]
  effect of topical administration on cat fleas: lethal effect on the cat fleas
Ctenocephalides felis [2]
  effect of topical administration on cat fleas: rapid and sustained lethal effect on cat fleas
[3]; both sexes, cat, in vivo, oral administration, Capstar tablet 11.4 mg nitenpyram
  Tmax: 1.3 h
[3]; [4]
  AUC: 76800 ng·h/mL
  half-life: 9.8 h
[3]; both sexes, in vivo, po, 11.4 mg, oral administration, Capstar tablet 11.4 mg nitenpyram
  Cmax: > 5800 ng/mL
[3]; female, in vivo, topical or ocular, 50 mg per cat, topical administration, 10% solution 0.5 ml per cat
  AUC: 86400 ng·h/mL
[3]; [5]
  Cmax: 1290 ng/mL
  half-life: 69.1 h
  Tmax: 15 h
[3]; oral, Capstar tablet
  tolerance of oral administration: well tolerated
[3]; topical vs oral
  half-life time administered topically relative to orally: more than 7 times
[3]; topical, 10% solution 0.5 ml per cat
  tolerance of topical administration: well tolerated locally
